Assay [1] deals with T1, Short transient receptor potential channel 4 (Mus musculus, UniProt Q9QUQ5).
T1 sequence (Q9QUQ5 whole entry): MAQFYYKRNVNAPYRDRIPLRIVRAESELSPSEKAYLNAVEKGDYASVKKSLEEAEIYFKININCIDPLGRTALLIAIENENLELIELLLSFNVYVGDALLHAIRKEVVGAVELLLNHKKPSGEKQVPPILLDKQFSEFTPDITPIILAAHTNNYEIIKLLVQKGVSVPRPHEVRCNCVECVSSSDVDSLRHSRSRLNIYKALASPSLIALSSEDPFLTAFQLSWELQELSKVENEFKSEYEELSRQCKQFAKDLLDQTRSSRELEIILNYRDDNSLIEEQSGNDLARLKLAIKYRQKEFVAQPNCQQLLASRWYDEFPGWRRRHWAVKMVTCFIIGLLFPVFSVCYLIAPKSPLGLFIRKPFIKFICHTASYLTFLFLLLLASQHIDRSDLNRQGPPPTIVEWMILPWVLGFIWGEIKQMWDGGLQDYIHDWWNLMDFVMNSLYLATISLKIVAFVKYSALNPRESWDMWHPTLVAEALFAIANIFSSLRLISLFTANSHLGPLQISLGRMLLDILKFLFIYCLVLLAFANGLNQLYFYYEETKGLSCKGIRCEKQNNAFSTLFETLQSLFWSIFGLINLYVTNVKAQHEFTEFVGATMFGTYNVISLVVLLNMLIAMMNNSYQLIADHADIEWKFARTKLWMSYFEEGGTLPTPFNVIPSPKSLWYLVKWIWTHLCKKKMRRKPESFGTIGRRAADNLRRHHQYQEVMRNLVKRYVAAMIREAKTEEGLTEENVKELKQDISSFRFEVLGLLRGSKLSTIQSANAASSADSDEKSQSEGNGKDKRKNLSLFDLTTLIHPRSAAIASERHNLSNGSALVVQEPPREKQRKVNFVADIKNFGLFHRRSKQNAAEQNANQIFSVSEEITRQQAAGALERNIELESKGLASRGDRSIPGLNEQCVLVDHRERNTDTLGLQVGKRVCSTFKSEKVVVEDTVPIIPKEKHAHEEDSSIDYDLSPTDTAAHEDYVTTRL
Briefly: SAR Analysis for the identification of selective inhibits of the transient receptor potential cation channel C4 (TRPC4): Automated Electrophysiology. [Related pubchem assays (depositor defined):AID2256]. The class given is functional.

The target in assay [2] is T1, Short transient receptor potential channel 4. Briefly: potency of mouse TRPC4 calcium flux blockers – cell-based, HEK293 TRPC4/mu-opioid, DAMGO stimulus, Fluo-4, dose response (AID 492994). The format is functional.
In assay [3] the target is T2, Endoribonuclease toxin MazF (Escherichia coli K-12, UniProt P0AE70). The assay is described as follows: activation of MazEF endoribonuclease cleavage – biochemical, fluorescence, single-stranded RNA substrate, uHTS hits, dose response (AID 588481). The class given is functional.
The target in assay [4] is T2, Endoribonuclease toxin MazF. The assay is described as follows: substrate-only fluorescence increase artefacts – biochemical, single-stranded RNase substrate, counter-screen for MazEF activator project, dose response (AID 588502). The class given is functional.
Assay [5] deals with T3, Luciferin 4-monooxygenase (Photinus pyralis, UniProt P08659). The assay is described as follows: inhibition of purified Photinus pyralis luciferase – biochemical, luminescence, dose response (AID 1891).
The target in assay [6] is Heat shock protein HSP 90-alpha (Homo sapiens, UniProt P07900). The format is functional, organism-based.
The next assay has as its target T4, Streptokinase A (Streptococcus pyogenes serotype M1, UniProt P10520).
T4 sequence (P10520 whole entry): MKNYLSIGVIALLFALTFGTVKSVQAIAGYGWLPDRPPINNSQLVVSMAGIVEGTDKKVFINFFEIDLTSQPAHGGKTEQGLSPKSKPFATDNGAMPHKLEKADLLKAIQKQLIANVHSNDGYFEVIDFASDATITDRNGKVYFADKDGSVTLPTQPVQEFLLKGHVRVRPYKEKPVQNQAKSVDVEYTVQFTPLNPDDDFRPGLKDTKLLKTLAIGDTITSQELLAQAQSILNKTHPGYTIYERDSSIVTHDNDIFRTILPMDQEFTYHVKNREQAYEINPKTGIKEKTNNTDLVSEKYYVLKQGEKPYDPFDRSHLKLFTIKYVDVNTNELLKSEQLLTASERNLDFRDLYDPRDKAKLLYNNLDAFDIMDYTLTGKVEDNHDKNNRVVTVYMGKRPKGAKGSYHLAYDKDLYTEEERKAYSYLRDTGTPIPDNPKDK
The assay is described as follows: viability-normalized secreted streptokinase activity reduction – plasminogen activation absorbance, OD405, dose response (AID 1914).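 Note: secreted streptokinase activity via plasminogen activation per viability signal from cell pellet.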 The format is functional, Streptococcus pyogenes M1 GAS.

Assay [7] can be described thus: Luminescence Cell-Based Dose Confirmation HTS to Identify Inhibitors of Platelet Dense Granule Release. [Related pubchem assays: 1663 (Primary HTS), 1678 (Summary of Project)]. The format is functional.
The subject of a further assay is Streptococcus. The assay is described as follows: GAS UMAA2166 growth inhibition – luminescence, BacTiterGlo, counter-screen for streptokinase expression inhibitor project, dose response (AID 1915).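 Note: potency for reduction of bacterial viability or growth.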 The format is functional, organism-based.
For assay [8], the target named is Dual specificity tyrosine-phosphorylation-regulated kinase 1A (Rattus norvegicus, UniProt Q63470). The class given is biochemical, Homo sapiens.
The target of the next assay is HSP90 (Plasmodium falciparum 3D7, UniProt Q8IL32). The class given is functional, organism-based.
Assay [9] deals with T5, E3 ubiquitin-protein ligase XIAP (Homo sapiens, UniProt P98170). The assay is described as follows: small molecules displacing peptide from XIAP – biochemical, IAP family, fluorescence polarization (AID 1018). The class given is functional.
In assay [10] the target is T5, E3 ubiquitin-protein ligase XIAP. Briefly: Counter Screen using XIAP-Bir3 for Chemical Antagonists of Bir1/2 domains of IAP-family anti-apoptotic proteins. [Related pubchem assays (depositor defined):AID1018, AID1449, AID1514, AID1638, AID1749, AID1750, AID488957, AID488963].
For another assay, the target named is Troponin, cardiac muscle (Homo sapiens, UniProt P19429+P45379+P63316). Briefly: Fluorescence-based biochemical high throughput dose response assay for activators of the calcium sensitivity of cardiac Regulated Thin Filaments (RTF). [Related pubchem assays (depositor defined):AID493008, AID493018, AID504382, AID504383]. The class given is protein-complex assay.

The test system of a further assay is CHO. The assay is described as follows: CHO cell viability loss, potency – luminescence, cytotoxicity control for TLR9-MyD88 binding inhibitor project, dose response (AID 588339).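 Note: CHO cells stably coexpressing TLR9 and MyD88 fusions from primary screen; compound exposure lasted 48 hours before viability readout.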 The note with it: Cricetulus griseus. The class given is functional, cell-based, hamster.
The target in assay [11] is Glycogen synthase kinase-3 beta (Homo sapiens, UniProt P49841). Briefly: Inhibition of Human GSK-3 beta Activity Measured in Biochemical System Using Microfluidics - 2063-05_Inhibitor_Dose_DryPowder_Activity. [Related pubchem assays (depositor defined):AID2709].
Assay [12] deals with Glycogen synthase kinase-3 alpha (Homo sapiens, UniProt P49840). The assay is described as follows: Inhibition of Human GSK-3 alpha Activity Measured in Biochemical System Using Microfluidics - 2063-06_Inhibitor_Dose_DryPowder_Activity. [Related pubchem assays (depositor defined):AID2709].
Assay [13] deals with Voltage-gated inwardly rectifying potassium channel KCNH2 (Homo sapiens, UniProt Q12809). The note with it: Potency.
Another assay relates to Candida albicans. The assay is described as follows: Candida growth inhibition combined with fluconazole – CaCi-2 strain, Alamar Blue, dry powder, set 3, dose response (AID 488907). The format is functional, organism-based.
Another assay concerns HT-1080. Briefly: HT1080 cell viability loss – fluorescence readout (AID 620). The class given is functional, cell-based. The settings on record: Homo sapiens.
The nature of assay [14]: cells. The format is functional.
Assay [15] concerns the target T6, Oxysterols receptor LXR-beta (Homo sapiens, UniProt P55055).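 Note: Cell-based luminescence dose-response assay of agonist activity at LXR, run as a confirmatory counterscreen to a daf-12 agonist screen; HEK293 cells with Gal4-LXR fusion and GAL4-driven luciferase reporter; agonist potency from rising luciferase signal of a Gal4-LXR reporter.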
T6 sequence (P55055 whole entry): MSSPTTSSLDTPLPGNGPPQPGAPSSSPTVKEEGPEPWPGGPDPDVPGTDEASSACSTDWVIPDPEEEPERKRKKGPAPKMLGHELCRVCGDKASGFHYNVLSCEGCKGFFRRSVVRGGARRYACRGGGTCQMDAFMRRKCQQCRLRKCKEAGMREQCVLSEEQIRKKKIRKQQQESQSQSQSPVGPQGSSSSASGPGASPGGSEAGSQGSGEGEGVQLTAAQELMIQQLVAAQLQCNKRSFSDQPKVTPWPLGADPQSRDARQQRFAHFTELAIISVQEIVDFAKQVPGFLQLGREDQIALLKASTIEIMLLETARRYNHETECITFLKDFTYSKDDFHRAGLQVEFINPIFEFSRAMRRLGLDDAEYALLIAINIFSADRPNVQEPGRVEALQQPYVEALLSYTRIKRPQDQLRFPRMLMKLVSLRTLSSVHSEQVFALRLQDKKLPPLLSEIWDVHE
The class given is functional, cell-based.

The nature of assay [16]: cells.
Assay [17] is described as follows: NIH-3T3 fibroblast cytotoxicity, dose response, cytotoxicity control, cell-based, fluorescence, Alamar Blue, secondary assay (AID 2327).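 Note: NIH-3T3 mouse fibroblasts cultured with fluconazole at 8 µg/mL.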 The format is functional.
Assay [18] is described as follows: THP-1 cell cytotoxicity, dose response, cytotoxicity control for non-replicating M. tuberculosis project (AID 489025). The class given is functional.
The target of assay [19] is T3, Luciferin 4-monooxygenase. The assay is described as follows: Counter Screen for Luciferase-based Assay Positives. [Related pubchem assays: 620, 618, 411 ].
Assay [20] deals with Dual specificity protein kinase CLK1 (Homo sapiens, UniProt P49759). Briefly: inhibition of human CLK1 activity – biochemical, cherry-picked samples, selectivity assay for Dyrk1A inhibitor project, dose response (AID 588811).
Assay [21] in a line: Vero E6 cell cytotoxicity, dose response, cytotoxicity control for non-replicating M. tuberculosis project, secondary assay (AID 492998). The note with it: Vero C1008. The format is functional, VeroE6.
Assay [22] in a line: fluconazole-exposed Candida albicans growth modulators – fluorescence, retest, confirmation (AID 2467). The format is functional, cell-based.
Assay [23] in a line: HepG2 cell cytotoxicity, dose response, cytotoxicity control for non-replicating M. tuberculosis project (AID 489018). The format is functional. The note with it: Mycobacterium tuberculosis.
The nature of assay [24]: alpha-synuclein stem-loop luciferase translation blockers – H4 neuroglioma cells, luminescence, confirmation (AID 1988). The class given is functional, cell-based.

The structures appear in SMILES notation. Calls of active or inactive are those of the source.

T2 sequence (P0AE70 whole entry): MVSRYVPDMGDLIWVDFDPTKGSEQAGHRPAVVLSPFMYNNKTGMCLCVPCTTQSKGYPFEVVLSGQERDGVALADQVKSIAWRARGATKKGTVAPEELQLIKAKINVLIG
T5 sequence (P98170 whole entry): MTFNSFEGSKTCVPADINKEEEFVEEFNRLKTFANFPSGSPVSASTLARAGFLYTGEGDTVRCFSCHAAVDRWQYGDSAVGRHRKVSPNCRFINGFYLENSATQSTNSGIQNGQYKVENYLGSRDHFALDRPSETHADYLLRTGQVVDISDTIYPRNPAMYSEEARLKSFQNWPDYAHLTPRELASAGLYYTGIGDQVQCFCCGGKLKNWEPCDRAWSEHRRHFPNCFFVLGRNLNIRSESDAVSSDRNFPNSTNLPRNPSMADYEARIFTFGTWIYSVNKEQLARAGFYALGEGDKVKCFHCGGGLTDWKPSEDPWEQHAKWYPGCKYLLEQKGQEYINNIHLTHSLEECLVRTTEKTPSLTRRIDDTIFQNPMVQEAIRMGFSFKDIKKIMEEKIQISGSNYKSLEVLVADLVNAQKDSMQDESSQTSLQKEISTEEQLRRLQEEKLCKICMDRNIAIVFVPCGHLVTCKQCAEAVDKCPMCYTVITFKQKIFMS
T3 sequence (P08659 whole entry): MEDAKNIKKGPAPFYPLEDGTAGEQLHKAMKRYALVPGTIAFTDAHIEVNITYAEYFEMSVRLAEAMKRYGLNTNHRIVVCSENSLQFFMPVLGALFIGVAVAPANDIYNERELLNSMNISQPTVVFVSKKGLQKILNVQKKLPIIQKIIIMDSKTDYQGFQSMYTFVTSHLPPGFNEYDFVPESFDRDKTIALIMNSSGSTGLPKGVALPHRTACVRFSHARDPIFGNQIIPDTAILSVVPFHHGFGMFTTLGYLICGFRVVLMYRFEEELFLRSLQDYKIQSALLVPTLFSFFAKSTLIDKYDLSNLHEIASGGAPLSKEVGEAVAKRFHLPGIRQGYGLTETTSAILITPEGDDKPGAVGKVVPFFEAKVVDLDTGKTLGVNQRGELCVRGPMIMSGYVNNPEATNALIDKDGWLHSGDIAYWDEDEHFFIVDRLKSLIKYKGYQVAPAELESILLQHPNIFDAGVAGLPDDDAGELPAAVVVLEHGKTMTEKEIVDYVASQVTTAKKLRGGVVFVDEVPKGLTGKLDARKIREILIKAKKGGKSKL
Sequence of Glycogen synthase kinase-3 beta (P49841 whole entry): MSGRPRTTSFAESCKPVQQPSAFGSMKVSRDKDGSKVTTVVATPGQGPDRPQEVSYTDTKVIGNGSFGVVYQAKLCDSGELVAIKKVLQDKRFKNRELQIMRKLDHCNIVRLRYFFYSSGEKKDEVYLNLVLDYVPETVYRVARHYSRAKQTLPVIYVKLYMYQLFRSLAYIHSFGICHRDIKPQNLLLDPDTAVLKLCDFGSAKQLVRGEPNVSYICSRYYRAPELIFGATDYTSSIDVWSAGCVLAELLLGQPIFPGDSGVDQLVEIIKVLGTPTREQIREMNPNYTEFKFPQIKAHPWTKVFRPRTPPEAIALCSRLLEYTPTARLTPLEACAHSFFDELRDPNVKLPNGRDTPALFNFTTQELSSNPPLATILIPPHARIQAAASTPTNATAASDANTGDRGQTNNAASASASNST
Sequence of Glycogen synthase kinase-3 alpha (P49840 whole entry): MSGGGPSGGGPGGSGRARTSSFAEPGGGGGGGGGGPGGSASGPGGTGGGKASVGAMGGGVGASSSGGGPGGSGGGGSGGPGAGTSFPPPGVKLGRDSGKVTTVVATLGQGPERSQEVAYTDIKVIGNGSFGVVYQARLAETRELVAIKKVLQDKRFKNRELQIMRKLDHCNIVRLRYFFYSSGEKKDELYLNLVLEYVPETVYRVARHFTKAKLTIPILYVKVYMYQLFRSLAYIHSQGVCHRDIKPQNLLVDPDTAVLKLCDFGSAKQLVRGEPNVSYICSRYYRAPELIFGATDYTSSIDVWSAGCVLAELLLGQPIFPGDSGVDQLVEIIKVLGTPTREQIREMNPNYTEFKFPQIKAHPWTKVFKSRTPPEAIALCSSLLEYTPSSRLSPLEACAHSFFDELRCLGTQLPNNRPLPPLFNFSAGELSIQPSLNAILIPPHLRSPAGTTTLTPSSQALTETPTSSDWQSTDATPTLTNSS
Sequence of Voltage-gated inwardly rectifying potassium channel KCNH2 (Q12809 whole entry): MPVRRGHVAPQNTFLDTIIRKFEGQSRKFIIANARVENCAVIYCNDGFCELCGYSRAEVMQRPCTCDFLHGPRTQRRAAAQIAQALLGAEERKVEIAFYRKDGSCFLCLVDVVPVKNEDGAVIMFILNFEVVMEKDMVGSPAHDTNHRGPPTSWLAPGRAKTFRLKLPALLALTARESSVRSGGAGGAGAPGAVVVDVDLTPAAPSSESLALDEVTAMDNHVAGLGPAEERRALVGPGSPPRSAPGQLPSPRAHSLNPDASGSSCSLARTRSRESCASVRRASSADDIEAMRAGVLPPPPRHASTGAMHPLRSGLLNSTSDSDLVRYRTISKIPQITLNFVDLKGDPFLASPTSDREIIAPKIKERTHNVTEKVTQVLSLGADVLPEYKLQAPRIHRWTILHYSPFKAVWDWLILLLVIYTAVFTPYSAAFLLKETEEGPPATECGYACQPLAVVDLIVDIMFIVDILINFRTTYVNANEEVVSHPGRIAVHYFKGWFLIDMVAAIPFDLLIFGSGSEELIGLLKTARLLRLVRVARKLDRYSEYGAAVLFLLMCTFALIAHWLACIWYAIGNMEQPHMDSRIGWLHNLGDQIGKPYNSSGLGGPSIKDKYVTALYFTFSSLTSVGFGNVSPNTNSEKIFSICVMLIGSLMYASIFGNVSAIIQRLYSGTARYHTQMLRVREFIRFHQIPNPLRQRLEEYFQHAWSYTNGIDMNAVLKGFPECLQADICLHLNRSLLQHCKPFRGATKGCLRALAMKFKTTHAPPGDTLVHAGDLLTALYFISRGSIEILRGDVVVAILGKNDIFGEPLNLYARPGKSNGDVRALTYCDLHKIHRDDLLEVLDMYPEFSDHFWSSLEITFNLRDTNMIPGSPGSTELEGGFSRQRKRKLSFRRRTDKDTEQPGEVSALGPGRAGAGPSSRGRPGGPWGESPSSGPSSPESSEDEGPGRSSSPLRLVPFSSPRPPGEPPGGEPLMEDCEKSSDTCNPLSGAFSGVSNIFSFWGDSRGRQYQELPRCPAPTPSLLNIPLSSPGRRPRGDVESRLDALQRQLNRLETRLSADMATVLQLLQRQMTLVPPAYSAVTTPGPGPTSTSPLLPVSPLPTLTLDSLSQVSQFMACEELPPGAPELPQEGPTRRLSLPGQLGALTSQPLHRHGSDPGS
Sequence of HSP90 (Q8IL32 whole entry): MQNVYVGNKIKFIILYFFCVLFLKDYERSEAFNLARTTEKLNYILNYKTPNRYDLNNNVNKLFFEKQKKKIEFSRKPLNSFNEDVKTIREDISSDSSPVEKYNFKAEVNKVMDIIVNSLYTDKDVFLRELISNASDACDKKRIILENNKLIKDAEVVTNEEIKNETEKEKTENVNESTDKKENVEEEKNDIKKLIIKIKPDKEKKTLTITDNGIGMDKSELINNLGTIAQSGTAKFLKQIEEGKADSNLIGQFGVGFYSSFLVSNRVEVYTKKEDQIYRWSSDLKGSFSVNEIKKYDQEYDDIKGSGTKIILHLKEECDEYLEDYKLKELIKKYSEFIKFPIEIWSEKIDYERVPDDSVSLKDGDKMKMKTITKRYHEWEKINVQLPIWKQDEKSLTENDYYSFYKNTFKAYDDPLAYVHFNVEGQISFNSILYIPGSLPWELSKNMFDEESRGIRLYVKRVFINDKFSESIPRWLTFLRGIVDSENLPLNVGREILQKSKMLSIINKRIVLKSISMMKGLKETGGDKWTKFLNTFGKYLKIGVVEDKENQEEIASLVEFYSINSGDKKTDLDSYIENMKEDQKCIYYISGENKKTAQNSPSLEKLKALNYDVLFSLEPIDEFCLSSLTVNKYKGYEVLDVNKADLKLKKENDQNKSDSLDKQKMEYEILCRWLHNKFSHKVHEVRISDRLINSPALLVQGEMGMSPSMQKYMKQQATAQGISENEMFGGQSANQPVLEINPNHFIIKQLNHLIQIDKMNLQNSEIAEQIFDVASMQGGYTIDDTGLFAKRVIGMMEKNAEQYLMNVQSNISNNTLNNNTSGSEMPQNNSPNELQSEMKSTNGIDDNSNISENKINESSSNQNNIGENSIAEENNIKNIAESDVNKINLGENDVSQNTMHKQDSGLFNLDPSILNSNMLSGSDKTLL
Sequence of Dual specificity protein kinase CLK1 (P49759 whole entry): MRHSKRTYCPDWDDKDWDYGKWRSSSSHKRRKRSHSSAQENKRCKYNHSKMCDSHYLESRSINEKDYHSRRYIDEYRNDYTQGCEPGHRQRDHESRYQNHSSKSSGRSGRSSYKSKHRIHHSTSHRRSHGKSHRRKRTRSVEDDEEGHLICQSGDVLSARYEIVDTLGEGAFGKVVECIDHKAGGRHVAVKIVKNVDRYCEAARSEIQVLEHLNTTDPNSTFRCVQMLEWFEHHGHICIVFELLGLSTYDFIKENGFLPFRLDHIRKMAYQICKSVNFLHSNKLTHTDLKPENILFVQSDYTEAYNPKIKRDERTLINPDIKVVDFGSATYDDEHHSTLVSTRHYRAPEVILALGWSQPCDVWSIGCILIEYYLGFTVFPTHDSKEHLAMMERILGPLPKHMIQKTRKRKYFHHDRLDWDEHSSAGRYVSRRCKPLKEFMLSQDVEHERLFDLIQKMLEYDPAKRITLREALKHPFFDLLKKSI

As to `Cc1cc(N2CCOCC2)nc2ccccc12`, the values for the IC50 in assay [1] and in assay [2] were 140 µM (inactive) and 39 µM (active), respectively.
For the molecule `Oc1nc(N/N=C\c2ccc(F)cc2)nc2ccccc12`, the EC50 was 7.12 µM (active) in [3] and > 99 µM (inactive) in assay [4].
Consider `COc1ccccc1/N=c1\oc2cc(O)ccc2cc1C(N)=O`, for which the EC50 is 1.15 µM (active) in assay [5], > 150 µM (not active) at Streptokinase A, 3.1 µM (active) in assay [7] and 42 µM (active) in the assay on Streptococcus. For the same molecule, the AC50 in assay [6] was 17.3 µM (active); in assay [8], 0.139 µM (active); at HSP90, 27.5 µM (active).
Take `CCC1(C)OC(c2ccccc2)=C/C(=C/C=C2C(=O)NC(=O)NC2=O)O1` (configuration not stated): the IC50 in assay [9] is > 100 µM (not active); in assay [10], > 100 µM (inactive); in the assay on CHO, > 49.7 µM (inactive). The EC50 on Troponin, cardiac muscle was 2.38 µM (active).
In the case of `CCCn1nc(NC(=O)c2cccs2)c2cc3cc(OC)ccc3nc21`, the AC50 was 0.445 µM (active) in [11] and 9.59 µM (active) in [12].
Take `O=C(OCCN1CCCCC1)c1c[nH]c2ccccc12`: the AC50 in [13] was 20 µM (inconclusive).
On to `COCCC(=O)N1CCN(c2ccccn2)CC1`, for which, in the assay with Candida albicans, the AC50 is 5.95 µM (active).
Consider `Cc1cc(NCCCn2ccnc2)n2ncc(-c3ccc(Cl)cc3)c2n1`, for which the concentration for a half-maximal effect (EC50) with HT-1080 is 35 µM (active); in assay [15], > 67.6 µM (inactive); in “cells [16]”, > 67.6 µM (inactive); in assay [17] it was 21.8 µM (inconclusive); in assay [19] it was 2.18 µM (active); in assay [22], 3.66 µM (active). Also, the EC50 in assay [24] was 9.97 µM (inconclusive). Moreover, the IC50 in the assay “cells [14]” is 11.1 µM (active). The CC50 was 22 µM (active) in assay [18], 7.48 µM (active) in assay [21] and > 20 µM (active) in [23]. The values for the AC50 in [20] and in assay [8] were 5.5 µM (active) and 2.85 µM (active), respectively.

These data come from ChEMBL document CHEMBL1201862, “PubChem BioAssay data set” (2004).
